# Test results: patent US8673940B2, “Compounds for the treatment of diseases associated with amyloid or amyloid-like proteins” (AC Immune SA, priority 2006, dated 2014)
# Where a name gives a salt, the structure may show the parent alone. Read-outs that look alike come from different tables or passages of the source.
# Columns and labels:
# [1] = target: T1, Oregon Green labelled Aβ1-42 (Homo sapiens, UniProt P05067); assay: FCS-assay with 5 nM Oregon Green labelled Aβ-peptide (disaggregation of preformed aggregates); assay type: biochemical
# T1 construct: DMSO-stock solutions of Oregon Green labelled Aβ1-42 1:1 with deionized water
# T1 sequence (P05067 672-713 limits assumed): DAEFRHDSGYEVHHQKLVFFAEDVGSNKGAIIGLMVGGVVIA
# Description: In order to analyse for the disaggregating properties of the compounds, preformed aggregates were used, which were induced straight before the FCS-measurement by diluting 500 nM DMSO-stock solutions of Oregon Green labelled Aβ1-42 1:1 with deionized water. The final concentration of Oregon Green labelled Aβ-peptide was 5 nM in 1×PBS and 3% DMSO. In order to improve the reproducibility of the measurements of the concentration dependencies of all samples were prepared fourfold.
# [2] = prior-art compound, stated in background; cited from earlier work
# [3] = prior-art compound, stated in background; cited from earlier work; remark: listed apart in the source
# [4] = target: T2, amyloid beta (Aβ) 1-42 peptide (Homo sapiens, UniProt P05067); assay: Thioflavin T spectrofluorescence assay, inhibition of Aβ1-42 aggregation; assay type: biochemical
# T2 construct: amyloid beta (Aβ) 1-42 peptide; purchased Bachem
# T2 sequence (P05067 672-713 limits assumed): as above
# Description: A number of the small molecules were tested for their capacity to inhibit the aggregation of amyloid beta (Aβ) 1-42 peptide using a thioflavin T spectrofluorescence assay.
# Aβ1-42 lyophilized powder (Bachem) was reconstituted in hexafluoroisopropanol (HFIP) to 1 mM. The peptide solution was sonicated for 15 min at room temperature, agitated overnight, and aliquots were placed into non-siliconized microcentrifuge tubes. The HFIP was then evaporated under a stream of argon. The resulting peptide film was dried under vacuum for 10 min, tightly sealed and stored at −80° C. until used.
# To assay for the small molecule-mediated inhibition of Aβ1-42 aggregation, the small molecules were dissolved before each experiment in anhydrous dimethyl sulfoxide (DMSO, Sigma-Aldrich) to reach a concentration of 7.4 mM. Aβ1-42 peptide film was dissolved in DMSO to reach 400 μM. Assay solution in PBS buffer was prepared in non-siliconized incubation tubes to reach the following concentrations: 330 μM small molecule, 33 μM Aβ1-42, 10 μM thioflavin T (ThT), and 12.8% DMSO. Therefore, the final molar ratio of small molecule to Aβ1-42 was 10:1. A positive control without a small molecule was prepared to measure maximum RFU. A negative control without Aβ1-42 was prepared for each small molecule. 3-Aminopyrazole trimer (Trimer) was tested in all assays to ascertain reproducibility between independent experiments. The solutions were incubated for 24 hrs at 37° C., and the spectrofluorescence (relative fluorescence units; RFU) was read in six replicates in black 384-well assay plates (Perkin-Elmer) on a Perkin-Elmer FluoroCount spectrofluorometer. Inhibition of aggregation is expressed as mean % inhibition or ±1 standard deviation (SD) according to the following equation: […]
# Cut-off criterium for the selection of functional molecules was defined at 50% inhibition capacity.
# The small molecules were evaluated for their capacity to mediate inhibition of Aβ1-42 aggregation at a 10:1 small molecule to Aβ1-42 molar ratio. The results are expressed as mean±standard deviation of two independent experiments.
molecule,measurement,setting,value
"CCCNc1ccc(NCc2ccc(NCc3ccc(NCCC)nc3)nc2)nc1 [Compound 2c, N^5-Propyl-N^2-((6-((6-(propylamino)pyridin-3-yl)methylamino)pyridin-3-yl)methyl)pyridine-2,5-diamine]","percentage of the ""number of peaks"" value obtained for the control reaction without added compound",[1]; 100 nM compound,29.4%
same,"percentage of the ""peaks x height"" value obtained for the control reaction without added compound",[1]; 100 nM compound,26.6%
same,"percentage of the ""number of peaks"" value obtained for the control reaction without added compound",[1]; 200 nM compound,51.2%
same,"percentage of the ""peaks x height"" value obtained for the control reaction without added compound",[1]; 200 nM compound,45.1%
3-Aminopyrazole trimer,carcinogenicity,[2],carcinogenic
same,mutagenicity,[2],mutagenic
same,metabolic stability,[3],metabolically unstable
"Clc1ccc(-c2csc(NCc3cnc(NCc4ccccc4)s3)n2)cc1 [Compound 2ak, N-Benzyl-5-((4-(4-chlorophenyl)thiazol-2-ylamino)methyl)thiazol-2-amine]",inhibition at 330 µM,[4]; 24 h,37.2 ± 14.8%
same,melting point,,105 to 106 °C
"Fc1ccc(-c2cc(NCc3cccc(NCc4ccccc4)n3)n[nH]2)cc1 [Compound 2t, N-Benzyl-6-((5-(4-fluorophenyl)-1H-pyrazol-3-ylamino)methyl)pyridin-2-amine]",inhibition at 330 µM,"[4]; 330 μM small molecule, 33 μM Aβ1-42 (10:1 molar ratio), 24 hrs at 37° C., mean ± SD of two independent experiments, read-out: % inhibition",86.8 ± 2.9%
same,"percentage of the ""number of peaks"" value obtained for the control reaction without added compound",[1]; 200 nM compound,67.2%
same,"percentage of the ""peaks x height"" value obtained for the control reaction without added compound",[1]; 200 nM compound,53.3%
"CNc1ncc(CNc2ncc(Cc3ccccc3)s2)s1 (as salt: hydrochloride) [Compound 2ah, 5-Benzyl-N-((2-(methylamino)thiazol-5-yl)methyl)thiazol-2-amine dihydrochloride]",melting point,,76 to 77 °C
